Experimental data: patent US20240208905A1, “ABIRATERONE DERIVATIVE, PREPARATION AND APPLICATION THEREOF” (GUANGDONG ZHONGKE MEDICINE R&D LTD., priority 2021, published 2024)
Where two headings read alike, the source gives them in different places.

Tests used:
[1] = test system: experimental rabbit ear acne; assay: Pharmacodynamics evaluation of acne: coal tar rabbit ear acne model, HE pathology; type: in vivo, Japanese big-ear white rabbits; conditions: 0.01% ointment, 1 g per animal, once a day, two weeks, 10 rabbits per group; for Degree of keratinization: number of rabbits graded + / Degree of keratinization: number of rabbits graded ++ / Degree of keratinization: number of rabbits graded +++ / Degree of keratinization: number of rabbits graded −: hair follicle keratinization
Source text: There are 140 male healthy Japanese big-ear white rabbits, weighing 2.0-2.5 kg. After one week of adaptive rearing, 10 rabbits were randomly selected according to their body weights as the normal control group, and the remaining 130 rabbits were coated with coal tar once a day in the area of 2×2 cm2 at 2 cm outside the opening of ear canal, with a thickness of about 0.5 mm (Before coating, the coal tar was heated to melt in a water bath, and the last coal tar shell was removed before each application; the rabbits in normal control group were coated with olive oil by the same method as before). After 3 weeks for modeling, according to the degree of skin lesion, 130 rabbits were randomly divided into 13 groups which is model control group, Example 1 compound (1 group), Example 2 compound (2 groups), Example 3 compound (3 groups), Example 4 (4 groups), Example 5 (5 groups), Example 6 (6 groups), Example 7 (7 groups), Example 8 (8 groups), Example 9 (9 groups), Example 10 (10 groups), Example 11 (11 groups), Example 12 (12 groups), Example 13 (13 groups), and each group had 10 rabbits. After grouping, each dose group were continued to be coated coal tar in the morning, and after the coal tar was removed in the afternoon, apply the test drug or control drug (both 0.01%/10 g ointment, apply 1 g ointment per animal) on the lesion, once a day, for two consecutive weeks (the model control group and the normal control group were coated with the same amount of matrix). 24 hours after the last administration, the animals were sacrificed by air embolism, and the skin (full thickness) of the ear where the administration was administered was taken, fixed with 4% paraformaldehyde solution, stained with HE, and routinely observed for pathology.1.

[2] = test system: human prostate cancer cell VCaP nude mouse transplanted tumor model; assay: Prostate tumor pharmacodynamics experiment: VCaP nude mouse transplanted tumor model; type: in vivo, BALB/c nude mice; conditions: for inhibition in vivo at 500 µmol/kg: Mus musculus, VCaP, po, 600 h, read-out: Growth Inhibition rate (GI); for Tumor volume, day 25: n=6, * P<0.05, ** P<0.01 vs solvent control
Method: Male BALB/c nude mice (number: 90; age: 6-7 weeks) purchased from Beijing Vital River Laboratory Animal Technology Co., Ltd., were raised in the SPF animal room of Suzhou Shengsu New Drug Development Co., Ltd. at a temperature of 20˜25° C. and a relative humidity 40%˜70%, and bright and dark illumination for 12 hours respectively; these mice were allowed to drink and eat freely. After normal feeding for about 6 days, mice with good physical signs can be selected for this experiment after veterinary inspection. Before grouping, animals were identified at their base of tail using marking pens. After grouping, each animal was identified by ear clipping.
Human prostate cancer cells VCaP were obtained from the Shanghai Cell Bank of the Chinese Academy of Sciences (CAS, cryopreserved in liquid nitrogen in our laboratory).
Under a culture condition of 5% CO2 and 37° C., VCaP cells were routinely cultured in DMEM medium containing 10% fetal bovine serum. Digested with 0.25% trypsin and passaged, VCaP cells were passaged 2-3 times per week based on cell growth, with a passage ratio of 1:3 to 1:5.
The VCaP cells in logarithmic growth phase were collected, counted, and resuspended in 50% DMEM basal medium and 50% Matrigel Matrix, and the cell concentration was adjust to 5×10^7 cells/mL; the cells was placed in an ice box; Cell suspension was aspirated with a 1 ml syringe, and injected subcutaneously to the anterior right armpit of nude mice. Each animal was inoculated with 200 μL (1×10^7 cells/mouse), and a VCaP transplant tumor model in nude mice was established. Regularly observe the status of mice, measure the diameter of the tumor with an electronic vernier caliper, input the data into Excel spreadsheets, calculate the tumor volume, and monitor its growth. When the tumor volume reached 100-300 mm3, 60 mice with good health and similar tumor volume were selected, and divided into 10 groups (n=6) based on the tumor volume using random block method, while ensuring that the average body weight of each group remained consistent as much as possible. The day of grouping was taken as the first day of the experiment (D1). The tumor diameters were measured twice a week after the initiation of the experiment, the tumor volumes were calculated, and the body weights of the animals were weighed and recorded at the same time.
Preparation of DMSO&PEG400&PG (v:v:v, 10:60:30): appropriate volumes of DMSO, PEG400 and PG were drawed respectively, and mixed well. The ratio of DMSO, PEG400 and PG in the mixture is 10:60:30 (v:v:v), and this mixture is used as a blank solvent and stored at room temperature.
Appropriate amount of the test compound was weighed and added into a glass bottle, appropriate volume of solvent DMSO was added, be treated with vortex ultrasonication, then appropriate volumes of PEG400 and PG were added in turn, be vortex mixed to obtain a dosing formulation with a final concentration of 0.05M. The dosing formulation was stored in refrigerator at 2-8° C. after subpackaging, and was stirred evenly with vortex before each administration. The dosing formulation was prepared every 7 days, and was subpackaged and stored in refrigerator at 4° C.
Appropriate amount of ZONK1901-10 was weighed and added into a glass bottle, appropriate volume of corn oil, was added, be treated with vortex ultrasonication evenly, a dosing formulation with a final concentration of 19.58 mg·mL-1 (0.05 M) was obtained.

[3] = day 25, 0.5 mmol·kg−1 i.g. QD, vs solvent control

C[C@]12CCC(=NOC(=O)OCCN3CCOCC3)C=C1CC[C@H]1[C@@H]2CC[C@]2(C)C(c3cccnc3)=CC[C@@H]12 [Example 9]
degree of inflammatory cell infiltration: number of rabbits graded + [1]: 5 | degree of inflammatory cell infiltration: number of rabbits graded ++ [1]: 4 | degree of inflammatory cell infiltration: number of rabbits graded +++ [1]: 1 | degree of inflammatory cell infiltration: number of rabbits graded − [1]: 0 | Degree of keratinization: number of rabbits graded + [1]: 6 | Degree of keratinization: number of rabbits graded ++ [1]: 4 | Degree of keratinization: number of rabbits graded +++ [1]: 0 | Degree of keratinization: number of rabbits graded − [1]: 0

C[C@]12CCC(=NOC(=O)N(CCCl)CCCl)C=C1CC[C@H]1[C@@H]2CC[C@]2(C)C(c3cccnc3)=CC[C@@H]12 [Example 3, (8S,9S,10R,13S,14S)-10,13-Dimethyl-17-(pyridin-3-yl) -6,7,8,9,10,11,12,13,14,15-decahydro-1H-cyclopenta[a]phenanthrenyl-3(2H)-one O-(bis(2-chloroethyl)carbamoyl)oxime]
degree of inflammatory cell infiltration: number of rabbits graded + [1]: 5 | degree of inflammatory cell infiltration: number of rabbits graded ++ [1]: 4 | degree of inflammatory cell infiltration: number of rabbits graded +++ [1]: 1 | degree of inflammatory cell infiltration: number of rabbits graded − [1]: 0 | Degree of keratinization: number of rabbits graded + [1]: 6 | Degree of keratinization: number of rabbits graded ++ [1]: 4 | Degree of keratinization: number of rabbits graded +++ [1]: 0 | Degree of keratinization: number of rabbits graded − [1]: 0 | inhibition in vivo at 500 µmol/kg [2]: 71.2% | Tumor volume, day 25 ([2]; day 25, 0.5 mmol·kg−1 i.g. QD): 478 ± 64 ** mm3

CC(C)C(=O)OCOC(=O)ON=C1C=C2CC[C@H]3[C@H](CC[C@]4(C)C(c5cccnc5)=CC[C@@H]34)[C@@]2(C)CC1 [Example 8, ((((((8S,9S,10R,13S,14S)-10,13-dimethyl-17-(pyridin-3-yl) -7,8,9,11,12,13,14,15-octahydro-1H-cyclopenta[a]phenanthrenyl-3(2H,6H,10H) -ylidene)amino)oxy)carbonyl)oxy)methyl isobutyrate]
degree of inflammatory cell infiltration: number of rabbits graded + [1]: 4 | degree of inflammatory cell infiltration: number of rabbits graded ++ [1]: 4 | degree of inflammatory cell infiltration: number of rabbits graded +++ [1]: 2 | degree of inflammatory cell infiltration: number of rabbits graded − [1]: 0 | Degree of keratinization: number of rabbits graded + [1]: 5 | Degree of keratinization: number of rabbits graded ++ [1]: 5 | Degree of keratinization: number of rabbits graded +++ [1]: 0 | Degree of keratinization: number of rabbits graded − [1]: 0

CN1CCC(C(=O)ON=C2C=C3CC[C@H]4[C@H](CC[C@]5(C)C(c6cccnc6)=CC[C@@H]45)[C@@]3(C)CC2)CC1 [Example 11, (8S,9S,10R,13S,14S)-10,13-Dimethyl-17-(pyridin-3-yl) -6,7,8,9,10,11,12,13,14,15-decahydro-1H-cyclopenta[a]phenanthrenyl-3(2H)-one O-(1-methylpiperidine-4-carbonyl)oxime]
degree of inflammatory cell infiltration: number of rabbits graded + [1]: 6 | degree of inflammatory cell infiltration: number of rabbits graded ++ [1]: 3 | degree of inflammatory cell infiltration: number of rabbits graded +++ [1]: 1 | degree of inflammatory cell infiltration: number of rabbits graded − [1]: 0 | Degree of keratinization: number of rabbits graded + [1]: 7 | Degree of keratinization: number of rabbits graded ++ [1]: 3 | Degree of keratinization: number of rabbits graded +++ [1]: 0 | Degree of keratinization: number of rabbits graded − [1]: 0

CC(=O)ON=C1C=C2CC[C@H]3[C@H](CC[C@]4(C)C(c5cccnc5)=CC[C@@H]34)[C@@]2(C)CC1 [Example 7, (8S,9S,10R,13S,14S)-10,13-Dimethyl-17-(pyridin-3-yl) -6,7,8,9,10,11,12,13,14,15-decahydro-1H-cyclopenta[a]phenanthrenyl-3(2H)-one O-acetyloxime]
degree of inflammatory cell infiltration: number of rabbits graded + [1]: 5 | degree of inflammatory cell infiltration: number of rabbits graded ++ [1]: 3 | degree of inflammatory cell infiltration: number of rabbits graded +++ [1]: 2 | degree of inflammatory cell infiltration: number of rabbits graded − [1]: 0 | Degree of keratinization: number of rabbits graded + [1]: 6 | Degree of keratinization: number of rabbits graded ++ [1]: 4 | Degree of keratinization: number of rabbits graded +++ [1]: 0 | Degree of keratinization: number of rabbits graded − [1]: 0

CN(C)CCNC(=O)ON=C1C=C2CC[C@H]3[C@H](CC[C@]4(C)C(c5cccnc5)=CC[C@@H]34)[C@@]2(C)CC1 [Example 1, (8S,9S,10R,13S,14S)-10, 13-Dimethyl-17-(pyridin-3-yl) -6,7,8,9,10,11,12,13,14,15-decahydro-1H-cyclopenteno[a]phenanthrene-3(2H)-one O-((2-(dimethylamino)ethyl)carbamoyl)oxime]
degree of inflammatory cell infiltration: number of rabbits graded + [1]: 5 | degree of inflammatory cell infiltration: number of rabbits graded ++ [1]: 3 | degree of inflammatory cell infiltration: number of rabbits graded +++ [1]: 2 | degree of inflammatory cell infiltration: number of rabbits graded − [1]: 0 | Degree of keratinization: number of rabbits graded + [1]: 6 | Degree of keratinization: number of rabbits graded ++ [1]: 4 | Degree of keratinization: number of rabbits graded +++ [1]: 0 | Degree of keratinization: number of rabbits graded − [1]: 0 | inhibition in vivo at 500 µmol/kg [2, 3]: 82.2% | Tumor volume, day 25 ([2]; day 25, 0.5 mmol·kg−1 i.g. QD): 384 ± 32 ** mm3

CC(=O)N1CCC(C(=O)ON=C2C=C3CC[C@H]4[C@H](CC[C@]5(C)C(c6cccnc6)=CC[C@@H]45)[C@@]3(C)CC2)CC1 [Example 12, 1-(4-(((((8S,9S,10R,13S,14S)-10,13-dimethyl-17-(pyridin-3-yl) -7,8,9,11,12,13,14,15-octahydro-1H-cyclopenteno[a]phenanthrenyl-3(2H,6H, 10H) -ylidene)amino)oxy)carbonyl)piperidin-1-yl)ethanone]
degree of inflammatory cell infiltration: number of rabbits graded + [1]: 5 | degree of inflammatory cell infiltration: number of rabbits graded ++ [1]: 4 | degree of inflammatory cell infiltration: number of rabbits graded +++ [1]: 1 | degree of inflammatory cell infiltration: number of rabbits graded − [1]: 0 | Degree of keratinization: number of rabbits graded + [1]: 5 | Degree of keratinization: number of rabbits graded ++ [1]: 5 | Degree of keratinization: number of rabbits graded +++ [1]: 0 | Degree of keratinization: number of rabbits graded − [1]: 0

CC(=O)ON=C1C=C2CC[C@H]3[C@H](CC[C@]4(C)C(c5cccnc5)=CC[C@@H]34)[C@@]2(C)CC1 [H]
inhibition in vivo at 500 µmol/kg [2, 3]: 69.3%

C[C@]12CCC(=NOC(=O)N3CCC(N4CCCCC4)CC3)C=C1CC[C@H]1[C@@H]2CC[C@]2(C)C(c3cccnc3)=CC[C@@H]12 [Example 4, (8S,9S,10R,13S,14S)-10,13-Dimethyl-17-(pyridin-3-yl) -6,7,8,9,10,11,12,13,14,15-decahydro-1H-cyclopentene[a]phenanthrenyl-3(2H)-one O-([1,4′-bipiperidine]-1′-carbonyl)oxime]
degree of inflammatory cell infiltration: number of rabbits graded + [1]: 5 | degree of inflammatory cell infiltration: number of rabbits graded ++ [1]: 3 | degree of inflammatory cell infiltration: number of rabbits graded +++ [1]: 2 | degree of inflammatory cell infiltration: number of rabbits graded − [1]: 0 | Degree of keratinization: number of rabbits graded + [1]: 7 | Degree of keratinization: number of rabbits graded ++ [1]: 3 | Degree of keratinization: number of rabbits graded +++ [1]: 0 | Degree of keratinization: number of rabbits graded − [1]: 1 | inhibition in vivo at 500 µmol/kg [2, 3]: 84.2% | Tumor volume, day 25 ([2]; day 25, 0.5 mmol·kg−1 i.g. QD): 377 ± 37 ** mm3

CCC(=O)O/N=C1/C=C2CC[C@H]3[C@H](CC[C@]4(C)C(c5cccnc5)=CC[C@@H]34)[C@@]2(C)CC1 [ZONK1901-19, reference compound]
inhibition in vivo at 500 µmol/kg [2, 3]: 38.7% | Tumor volume, day 25 ([2]; day 25, 0.5 mmol·kg−1 i.g. QD): 790 ± 49 * mm3

C[C@]12CCC(=NOC(=O)C3CCNCC3)C=C1CC[C@H]1[C@@H]2CC[C@]2(C)C(c3cccnc3)=CC[C@@H]12 [Example 10, (8S,9S,10R,13S,14S)-10,13-Dimethyl-17-(pyridin-3-yl) -6,7,8,9,10,11,12,13,14,15-decahydro-1H-cyclopenta[a]phenanthrenyl-3(2H)-one O-piperidine-4-carbonyl oxime]
degree of inflammatory cell infiltration: number of rabbits graded + [1]: 5 | degree of inflammatory cell infiltration: number of rabbits graded ++ [1]: 3 | degree of inflammatory cell infiltration: number of rabbits graded +++ [1]: 2 | degree of inflammatory cell infiltration: number of rabbits graded − [1]: 0 | Degree of keratinization: number of rabbits graded + [1]: 6 | Degree of keratinization: number of rabbits graded ++ [1]: 3 | Degree of keratinization: number of rabbits graded +++ [1]: 0 | Degree of keratinization: number of rabbits graded − [1]: 1

CN(C)CCN1CCC(C(=O)ON=C2C=C3CC[C@H]4[C@H](CC[C@]5(C)C(c6cccnc6)=CC[C@@H]45)[C@@]3(C)CC2)CC1 [Example 13, (8S,9S,10R,13S,14S)-10,13-Dimethyl-17-(pyridin-3-yl) -6,7,8,9,10,11,12,13,14,15-decahydro-1H-cyclopenta[a]phenanthrenyl-3(2H)-one O-(1-(2-(dimethylamino)ethyl)piperidine-4-carbonyl)oxime]
degree of inflammatory cell infiltration: number of rabbits graded + [1]: 6 | degree of inflammatory cell infiltration: number of rabbits graded ++ [1]: 3 | degree of inflammatory cell infiltration: number of rabbits graded +++ [1]: 1 | degree of inflammatory cell infiltration: number of rabbits graded − [1]: 0 | Degree of keratinization: number of rabbits graded + [1]: 4 | Degree of keratinization: number of rabbits graded ++ [1]: 6 | Degree of keratinization: number of rabbits graded +++ [1]: 0 | Degree of keratinization: number of rabbits graded − [1]: 0
